# Like-named read-outs stand apart in the source and are kept apart here.
# Key:
# Assay type in all cases: biochemical
# [1] = biological target: T1, human recombinant Monoacylglycerol Lipase (Homo sapiens, UniProt Q99685); assay: MAGL inhibition enzymatic assay, fluorogenic substrate 7-HCA, IC50 at T=0 min or after 30 minute incubation (T=30 min); conditions: geometric mean of 2-4 determinations unless otherwise indicated
# T1 sequence (Q99685 1-303): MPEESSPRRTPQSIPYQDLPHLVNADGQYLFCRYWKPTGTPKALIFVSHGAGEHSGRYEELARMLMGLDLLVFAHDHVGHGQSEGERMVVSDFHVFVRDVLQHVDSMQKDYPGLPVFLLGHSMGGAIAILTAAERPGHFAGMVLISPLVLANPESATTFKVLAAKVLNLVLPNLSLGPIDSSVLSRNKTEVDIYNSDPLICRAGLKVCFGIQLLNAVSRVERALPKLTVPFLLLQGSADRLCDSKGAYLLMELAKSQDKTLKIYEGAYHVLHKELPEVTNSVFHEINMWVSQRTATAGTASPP
# Procedure: An equal volume of 7-HCA in assay buffer with 10% DMSO was added either immediately (T=0 min) or after a 30 minute incubation (T=30 min) to initiate the reaction. […] After these dilutions, the final concentration of the test compound ranged from 3 μM to 0.03 nM. […] IC50 values were generated based on a four parameter fit model using ABASE software from IDBS.
# [2] = biological target: T1, human recombinant Monoacylglycerol Lipase; assay: MAGL inactivation, enzyme progress curves, kinact/KI; conditions: from enzyme progress curves, T = 0 min protocol; geometric mean of 2-4 determinations unless otherwise indicated
# Outline: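 Human recombinant MAGL ([…]) with compound, 7-HCA substrate (final 5 μM) added immediately (T=0 min), in pH 7.4 HEPES buffer with 0.1% Triton X-100 and 25% glycerin. Fluorescence (Ex/Em 340/465) was read every minute over 60 min, giving progress curves at decreasing compound concentrations (final 3 μM to 0.03 nM).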
# [3] = biological target: T2, human recombinant FAAH (Homo sapiens, UniProt O00519); assay: FAAH inhibition enzymatic assay, fluorescent substrate Arachidonoyl-AMC, 30 minute incubation; conditions: T = 30 min (30 minute incubation); geometric mean of 2-4 determinations unless otherwise indicated
# T2 construct: purchased Cayman 10010183
# T2 sequence (O00519 1-579): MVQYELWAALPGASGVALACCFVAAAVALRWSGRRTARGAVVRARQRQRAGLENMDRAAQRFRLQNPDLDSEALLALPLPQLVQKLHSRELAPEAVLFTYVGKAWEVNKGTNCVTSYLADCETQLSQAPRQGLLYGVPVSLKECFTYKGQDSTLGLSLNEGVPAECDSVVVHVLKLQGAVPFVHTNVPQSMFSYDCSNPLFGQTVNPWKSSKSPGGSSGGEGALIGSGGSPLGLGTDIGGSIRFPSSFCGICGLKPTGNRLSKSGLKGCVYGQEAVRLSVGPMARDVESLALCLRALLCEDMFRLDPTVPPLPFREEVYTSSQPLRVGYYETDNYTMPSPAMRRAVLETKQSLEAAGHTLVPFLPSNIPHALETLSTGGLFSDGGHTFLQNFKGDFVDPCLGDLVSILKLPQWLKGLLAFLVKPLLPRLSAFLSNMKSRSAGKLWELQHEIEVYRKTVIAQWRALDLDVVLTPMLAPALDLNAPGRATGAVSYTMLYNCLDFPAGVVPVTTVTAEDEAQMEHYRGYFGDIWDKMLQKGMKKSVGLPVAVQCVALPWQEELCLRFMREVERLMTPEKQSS
# Procedure: Assessment of FAAH inhibition utilizes human recombinant FAAH and the fluorescent substrate, Arachidonoyl-AMC. 400 nL of a test compound at decreasing concentrations was spotted into a 384-well back plate (PerkinElmer, 6007279) using a Labcyte Echo, followed by addition of 10 μl of FAAH enzyme (Cayman 10010183) in assay buffer (50 mM Tris, pH 9.0, 1 mM EDTA). After a 30 minute incubation at room temperature, 10 μL of Arachidonyl-AMCA was added in assay buffer with 16% DMSO. Final concentration of FAAH enzyme was 0.0125 Units and AAMCA substrate was used at the Km of 5 μM. […] The reaction was allowed to progress for 60 minutes, after which the plate was read on a Molecular Devices FlexStation reader at an Ex/Em of 355/460. Percent inhibitions were calculated based on controls wells containing either no compound (0% inhibition) or a control compound (e.g., an FAAH inhibitor whose activity is known or was previously reported in the literature, such as one with about 100% inhibition). IC50 values were generated based on a four parameter fit model using ABASE software from IDBS.
# [4] = T = 0 min (substrate added immediately), read-out: MAGL (T = 0 min) IC50
# [5] = T = 30 min (30 minute incubation), read-out: MAGL (T = 30 min) IC50
SMILES,"IC50 [1, 4] [nM]","IC50 [1, 5] [nM]",MAGL kinact/KI [2],IC50 [3] [nM]
"O=C(O[C@H](CO)C(F)(F)F)N1CCC2(CC1)C[C@H](NS(=O)(=O)c1ccccc1)CO2 [Example 8, (2R)-1,1,1-Trifluoro-3-hydroxypropan-2-yl (3S)-3-[(phenylsulfonyl)amino]-1-oxa-8-azaspiro[4.5]decane-8-carboxylate]",57,5,6754 1/s per M,> 30000
"O=C(O[C@H](CO)C(F)(F)F)N1CCC(Oc2ccc(C3CC3)cn2)CC1 [Example 10, (2R)-1,1,1-Trifluoro-3-hydroxypropan-2-yl 4-[(5-cyclopropylpyridin-2-yl)oxy]piperidine-1-carboxylate]",77,7,5205 1/s per M,> 30000
"O=C(O[C@H](CO)C(F)(F)F)N1CCC2(CC1)CN(S(=O)(=O)c1cccc(F)c1)CCO2 [Example 11, (2R)-1,1,1-Trifluoro-3-hydroxypropan-2-yl 4-[(3-fluorophenyl)sulfonyl]-1-oxa-4,9-diazaspiro[5.5]undecane-9-carboxylate]",14,1,147964 1/s per M,> 30000
"O=C(O[C@H](CO)C(F)(F)F)N1CCC2(CCCN(S(=O)(=O)c3ccc(F)cc3)C2)CC1 [Example 12, (2R)-1,1,1-Trifluoro-3-hydroxypropan-2-yl 2-[(4-fluorophenyl)sulfonyl]-2,9-diazaspiro[5.5]undecane-9-carboxylate]",188,17,1801 1/s per M,> 30000
"O=C(O)C(F)(F)F.O=C(O[C@H](CO)C(F)(F)F)N1CCC(Oc2nccc3ccccc23)CC1 [Example 26, (2R)-1,1,1-Trifluoro-3-hydroxypropan-2-yl 4-(isoquinolin-1-yloxy)piperidine-1-carboxylate, trifluoroacetic acid salt]",31,2,16949 1/s per M,7730
O=C(OC(C(F)(F)F)C(F)(F)CO)N1C[C@@H]2[C@H](C1)[C@H]2c1ccn(-c2ccc(F)cc2)n1 (stereo partly shown) [Example 39],34,2,9893 1/s per M,6010
O=C(O[C@H](CO)C(F)(F)F)N1CCC(CNS(=O)(=O)c2ccc(F)cc2)CC1 [Example 47],174,17,5046 1/s per M,> 30000
Cc1cc(S(=O)(=O)N2CCOC3(CCN(C(=O)O[C@H](CO)C(F)(F)F)CC3)C2)ccc1F [Example 51],43,4,10340 1/s per M,> 30000
O=C(O[C@H](CO)C(F)(F)F)N1CCC2(CC1)CN(S(=O)(=O)c1ccc(F)c(F)c1)CCO2 [Example 52],56,5,7262 1/s per M,> 30000
O=C(O[C@H](CO)C(F)(F)F)N1CCC(Oc2ccc(C(F)(F)F)cn2)CC1 [Example 53],53,6,6900 1/s per M,> 30000
CN(CC1CCN(C(=O)O[C@H](CO)C(F)(F)F)CC1)S(=O)(=O)c1ccc(F)cc1 [Example 62],67,7,216 1/s per M,> 30000
O=C(O[C@H](CO)C(F)(F)F)N1CCC(Oc2ncc(C(F)(F)F)cc2Cl)CC1 [Example 63],7,1,7347 1/s per M,3010
CC(C)c1cccc(S(=O)(=O)N2CCOC3(CCN(C(=O)O[C@H](CO)C(F)(F)F)CC3)C2)c1 [Example 66],3,0.2,430364 1/s per M,7870
C#Cc1ccc(S(=O)(=O)N2CCOC3(CCN(C(=O)O[C@H](CO)C(F)(F)F)CC3)C2)cc1 [Example 68],56,6,16586 1/s per M,> 30000
Cc1ccc(S(=O)(=O)N2CCOC3(CCN(C(=O)O[C@H](CO)C(F)(F)F)CC3)C2)cc1F [Example 73],5,1,96515 1/s per M,> 30000
CCc1cccc(S(=O)(=O)N2CCOC3(CCN(C(=O)O[C@H](CO)C(F)(F)F)CC3)C2)c1 [Example 77],5,1,403739 1/s per M,5950
CC(C)Oc1ccc(S(=O)(=O)N2CCOC3(CCN(C(=O)O[C@H](CO)C(F)(F)F)CC3)C2)cc1 [Example 78],6,1,16865 1/s per M,2580
C#Cc1cccc(S(=O)(=O)N2CCOC3(CCN(C(=O)O[C@H](CO)C(F)(F)F)CC3)C2)c1 [Example 79],7,1,26513 1/s per M,10000
C#Cc1ccc(-n2ccc(C3CCN(C(=O)O[C@H](CO)C(F)(F)F)CC3)n2)cc1 [Example 80],7,1,126124 1/s per M,7920
C#Cc1ccc(-n2ccc([C@H]3[C@@H]4CN(C(=O)O[C@H](CO)C(F)(F)F)C[C@@H]43)n2)cc1 [Example 81],8,1,45138 1/s per M,7540
O=C(O[C@H](CO)C(F)(F)F)N1CCC2(CC1)CN(S(=O)(=O)c1cccc(Cl)c1)CCO2 [Example 83],19,2,21997^d 1/s per M,> 30000
O=C(O[C@H](CO)C(F)(F)F)N1CCC2(CC1)CN(S(=O)(=O)c1ccccc1F)CCO2 [Example 84],26,2,49166 1/s per M,19200
"CCN([C@H]1COC2(CCN(C(=O)O[C@H](CO)C(F)(F)F)CC2)C1)S(=O)(=O)c1ccccc1 [Example 92, (2R)-1,1,1-Trifluoro-3-hydroxypropan-2-yl (3R)-3-[ethyl(phenylsulfonyl)amino]-1-oxa-8-azaspiro[4.5]decane-8-carboxylate]",6,1,215500 1/s per M,> 30000
"CN([C@H]1COC2(CCN(C(=O)O[C@H](CO)C(F)(F)F)CC2)C1)S(=O)(=O)C1CC1 [Example 93, (2R)-1,1,1-Trifluoro-3-hydroxypropan-2-yl (3R)-3-[(cyclopropylsulfonyl)(methyl)amino]-1-oxa-8-azaspiro[4.5]decane-8-carboxylate]",318,29,3282 1/s per M,> 30000
"CN([C@@H]1COC2(CCN(C(=O)O[C@H](CO)C(F)(F)F)CC2)C1)S(=O)(=O)C1CC1 [Example 94, (2R)-1,1,1-Trifluoro-3-hydroxypropan-2-yl (3S)-3-[(cyclopropylsulfonyl)(methyl)amino]-1-oxa-8-azaspiro[4.5]decane-8-carboxylate]",316,27,3764 1/s per M,> 30000
